Test system: Nrf2 transcriptional activity (pARE-Luc reporter) in HepG2 cells
Experiment: In vitro Nrf2 transcriptional activity measurement by ARE-dependent reporter assay in HepG2 cell
Assay type: cell-based, human
Details: Homo sapiens; HepG2 cells transfected with pARE-Luc, 4 hours at 37° C.; luciferase activity of Example 1-54 or Example 17-23 at 3.75 μM defined as 100%
Outline: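 Luminescence readout (Bright-Glo) after 4 h, 37° C compound exposure of HepG2 cells carrying the ARE-luciferase vector pGL4.37. Each well converted to % response versus reference compound at 3.75 μM, and EC50 derived from dose-response curves.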

| Compound | EC50 |
| --- | --- |
| O=C(O)c1cc(F)c(-c2cccc3c2OCN(C(=O)c2c(Cl)cc(N4CC5(CN(CC6(F)COC6)C5)C4)cc2Cl)C3)cc1N1C2CCC1COC2 [Compound 7-1, 4-[3-[2,6-Dichloro-4-[6-[(3-fluorooxetan-3-yl)methyl]-2,6-diazaspiro[3.3]heptan-2-yl]benzoyl]-2,4-dihydro-1,3-benzoxazin-8-yl]-5-fluoro-2-(3-oxa-8-azabicyclo[3.2.1]octan-8-yl)benzoic acid] | 4.8 nM |
| COCCN1CC2(C1)CN(c1cc(Cl)c(C(=O)N3COc4c(cccc4-c4cc(N5C6CCC5COC6)c(C(=O)O)cc4F)C3)c(Cl)c1)C2 [Compound 7-3, 4-[3-[2,6-Dichloro-4-[6-(2-methoxyethyl)-2,6-diazaspiro[3.3]heptan-2-yl]benzoyl]-2,4-dihydro-1,3-benzoxazin-8-yl]-5-fluoro-2-(3-oxa-8-azabicyclo[3.2.1]octan-8-yl)benzoic acid] | 18 nM |
| O=C(O)c1cc(F)c(-c2cccc3c2OCN(C(=O)c2c(Cl)cc(N4CC5(CCN5CC(F)F)C4)cc2Cl)C3)cc1N1C2CCC1COC2 [Compound 7-4, 4-[3-[2,6-Dichloro-4-[1-(2,2-difluoroethyl)-1,6-diazaspiro[3.3]heptan-6-yl]benzoyl]-2,4-dihydro-1,3-benzoxazin-8-yl]-5-fluoro-2-(3-oxa-8-azabicyclo[3.2.1]octan-8-yl)benzoic acid] | 4.3 nM |
| O=C(O)c1cc(F)c(-c2cccc3c2OCN(C(=O)c2c(Cl)cc(N4CC5(CN(CC(F)(F)F)C5)C4)cc2Cl)C3)cc1N1C2CCC1COC2 [Compound 7-5, 4-[3-[2,6-Dichloro-4-[6-(2,2,2-trifluoroethyl)-2,6-diazaspiro[3.3]heptan-2-yl]benzoyl]-2,4-dihydro-1,3-benzoxazin-8-yl]-5-fluoro-2-(3-oxa-8-azabicyclo[3.2.1]octan-8-yl)benzoic acid] | 3.7 nM |
| COCCN1CCC12CN(c1cc(Cl)c(C(=O)N3COc4c(cccc4-c4cc(N5C6CCC5COC6)c(C(=O)O)cc4F)C3)c(Cl)c1)C2 [Compound 7-6, 4-[3-[2,6-Dichloro-4-[1-(2-methoxyethyl)-1,6-diazaspiro[3.3]heptan-6-yl]benzoyl]-2,4-dihydro-1,3-benzoxazin-8-yl]-5-fluoro-2-(3-oxa-8-azabicyclo[3.2.1]octan-8-yl)benzoic acid] | 5.4 nM |
| CC(C)(C#N)CN1CC2(C1)CN(c1cc(Cl)c(C(=O)N3COc4c(cccc4-c4cc(N5C6CCC5COC6)c(C(=O)O)cc4F)C3)c(Cl)c1)C2 [Compound 7-7, 4-[3-[2,6-Dichloro-4-[6-(2-cyano-2-methylpropyl)-2,6-diazaspiro[3.3]heptan-2-yl]benzoyl]-2,4-dihydro-1,3-benzoxazin-8-yl]-5-fluoro-2-(3-oxa-8-azabicyclo[3.2.1]octan-8-yl)benzoic acid] | 3.4 nM |
| COCCN1CCN(c2cc(Cl)c(C(=O)N3COc4c(cccc4-c4cc(N5C6CCC5COC6)c(C(=O)O)cc4F)C3)c(Cl)c2)[C@@H](C)C1 [Compound 7-8, 4-[3-[2,6-Dichloro-4-[(2S)-4-(2-methoxyethyl)-2-methylpiperazin-1-yl]benzoyl]-2,4-dihydro-1,3-benzoxazin-8-yl]-5-fluoro-2-(3-oxa-8-azabicyclo[3.2.1]octan-8-yl)benzoic acid] | 3.2 nM |
| COCCN1CCN(c2cc(Cl)c(C(=O)N3COc4c(cccc4-c4cc(N5C6CCC5COC6)c(C(=O)O)cc4F)C3)c(Cl)c2)[C@H](C)C1 [Compound 7-9, 4-[3-[2,6-Dichloro-4-[(2R)-4-(2-methoxyethyl)-2-methylpiperazin-1-yl]benzoyl]-2,4-dihydro-1,3-benzoxazin-8-yl]-5-fluoro-2-(3-oxa-8-azabicyclo[3.2.1]octan-8-yl)benzoic acid] | 8.4 nM |
| COCCN1CC2CC(C1)N2c1cc(Cl)c(C(=O)N2COc3c(cccc3-c3cc(N4C5CCC4COC5)c(C(=O)O)cc3F)C2)c(Cl)c1 [Compound 7-10, 4-[3-[2,6-Dichloro-4-[3-(2-methoxyethyl)-3,6-diazabicyclo[3.1.1]heptan-6-yl]benzoyl]-2,4-dihydro-1,3-benzoxazin-8-yl]-5-fluoro-2-(3-oxa-8-azabicyclo[3.2.1]octan-8-yl)benzoic acid] | 27 nM |
| COCCN1C2CCC1CN(c1cc(Cl)c(C(=O)N3COc4c(cccc4-c4cc(N5C6CCC5COC6)c(C(=O)O)cc4F)C3)c(Cl)c1)C2 [Compound 7-11, 4-[3-[2,6-Dichloro-4-[8-(2-methoxyethyl)-3,8-diazabicyclo[3.2.1]octan-3-yl]benzoyl]-2,4-dihydro-1,3-benzoxazin-8-yl]-5-fluoro-2-(3-oxa-8-azabicyclo[3.2.1]octan-8-yl)benzoic acid] | 3.2 nM |
| COCCN1CC2CCC(C1)N2c1cc(Cl)c(C(=O)N2COc3c(cccc3-c3cc(N4C5CCC4COC5)c(C(=O)O)cc3F)C2)c(Cl)c1 [Compound 7-12, 4-[3-[2,6-Dichloro-4-[3-(2-methoxyethyl)-3,8-diazabicyclo[3.2.1]octan-8-yl]benzoyl]-2,4-dihydro-1,3-benzoxazin-8-yl]-5-fluoro-2-(3-oxa-8-azabicyclo[3.2.1]octan-8-yl)benzoic acid] | 2.3 nM |
| O=C(O)c1cc(F)c(-c2cccc3c2OCN(C(=O)c2c(Cl)cc(N4CC5CCC(C4)N5CC(F)F)cc2Cl)C3)cc1N1C2CCC1COC2 [Compound 7-13, 4-[3-[2,6-Dichloro-4-[8-(2,2-difluoroethyl)-3,8-diazabicyclo[3.2.1]octan-3-yl]benzoyl]-2,4-dihydro-1,3-benzoxazin-8-yl]-5-fluoro-2-(3-oxa-8-azabicyclo[3.2.1]octan-8-yl)benzoic acid] | 5.7 nM |
| COCCN1C2CC1CN(c1cc(Cl)c(C(=O)N3COc4c(cccc4-c4cc(N5C6CCC5COC6)c(C(=O)O)cc4F)C3)c(Cl)c1)C2 [Compound 7-14, 4-[3-[2,6-Dichloro-4-[6-(2-methoxyethyl)-3,6-diazabicyclo[3.1.1]heptan-3-yl]benzoyl]-2,4-dihydro-1,3-benzoxazin-8-yl]-5-fluoro-2-(3-oxa-8-azabicyclo[3.2.1]octan-8-yl)benzoic acid] | 24 nM |
| O=C(O)c1cc(F)c(-c2cccc3c2OCN(C(=O)c2c(Cl)cc(N4CC5CCC(C4)N5CC4(F)COC4)cc2Cl)C3)cc1N1C2CCC1COC2 [Compound 7-15, 4-[3-[2,6-Dichloro-4-[8-[(3-fluorooxetan-3-yl)methyl]-3,8-diazabicyclo[3.2.1]octan-3-yl]benzoyl]-2,4-dihydro-1,3-benzoxazin-8-yl]-5-fluoro-2-(3-oxa-8-azabicyclo[3.2.1]octan-8-yl)benzoic acid] | 2.5 nM |
| COCCN1C[C@H]2CC[C@@H]1CN2c1cc(Cl)c(C(=O)N2COc3c(cccc3-c3cc(N4C5CCC4COC5)c(C(=O)O)cc3F)C2)c(Cl)c1 [Compound 7-16, 4-[3-[2,6-Dichloro-4-[(1R,4R)-5-(2-methoxy-ethyl)-2,5-diazabicyclo[2.2.2]octan-2-yl]benzoyl]-2,4-dihydro-1,3-benzoxazin-8-yl]-5-fluoro-2-(3-oxa-8-azabicyclo[3.2.1]octan-8-yl)benzoic acid] | 7.4 nM |
| COCCN1C[C@@H]2CC[C@H]1CN2c1cc(Cl)c(C(=O)N2COc3c(cccc3-c3cc(N4C5CCC4COC5)c(C(=O)O)cc3F)C2)c(Cl)c1 [Compound 7-17, 4-[3-[2,6-Dichloro-4-[(1S,4S)-5-(2-methoxy-ethyl)-2,5-diazabicyclo[2.2.2]octan-2-yl]benzoyl]-2,4-dihydro-1,3-benzoxazin-8-yl]-5-fluoro-2-(3-oxa-8-azabicyclo[3.2.1]octan-8-yl)benzoic acid] | 9 nM |
| COCC(COC)N1C2CCC1CN(c1cc(Cl)c(C(=O)N3COc4c(cccc4-c4cc(N5C6CCC5COC6)c(C(=O)O)cc4F)C3)c(Cl)c1)C2 [Compound 7-18, 4-[3-[2,6-Dichloro-4-[8-(1,3-dimethoxypropan-2-yl)-3,8-diazabicyclo[3.2.1]octan-3-yl]benzoyl]-2,4-dihydro-1,3-benzoxazin-8-yl]-5-fluoro-2-(3-oxa-8-azabicyclo[3.2.1]octan-8-yl)benzoic acid] | 1.7 nM |
| COCCN1CCC2(C1)CN(c1cc(Cl)c(C(=O)N3COc4c(cccc4-c4cc(N5C6CCC5COC6)c(C(=O)O)cc4F)C3)c(Cl)c1)C2 [Compound 8-1, 4-[3-[2,6-Dichloro-4-[7-(2-methoxyethyl)-2,7-diazaspiro[3.4]octan-2-yl]benzoyl]-2,4-dihydro-1,3-benzoxazin-8-yl]-5-fluoro-2-(3-oxa-8-azabicyclo[3.2.1]octan-8-yl)benzoic acid] | 1.6 nM |
| O=C(O)c1cc(F)c(-c2cccc3c2OCN(C(=O)c2c(Cl)cc(N4CCN(CC(F)F)CC4)cc2Cl)C3)cc1N1C2CCC1COC2 [Compound 8-2, 4-[3-[2,6-Dichloro-4-[4-(2,2-difluoroethyl)piperazin-1-yl]benzoyl]-2,4-dihydro-1,3-benzoxazin-8-yl]-5-fluoro-2-(3-oxa-8-azabicyclo[3.2.1]octan-8-yl)benzoic acid] | 4 nM |
| COCCN1CCN(c2cc(Cl)c(C(=O)N3COc4c(cccc4-c4cc(N5C6CCC5COC6)c(C(=O)O)cc4F)C3)c(Cl)c2)CC1(C)C [Compound 8-3, 4-[3-[2,6-Dichloro-4-[4-(2-methoxyethyl)-3,3-dimethylpiperazin-1-yl]benzoyl]-2,4-dihydro-1,3-benzoxazin-8-yl]-5-fluoro-2-(3-oxa-8-azabicyclo[3.2.1]octan-8-yl)benzoic acid] | 2.6 nM |
| COCCN1[C@H](C)CN(c2cc(Cl)c(C(=O)N3COc4c(cccc4-c4cc(N5C6CCC5COC6)c(C(=O)O)cc4F)C3)c(Cl)c2)C[C@@H]1C [Compound 8-4, 4-[3-[2,6-Dichloro-4-[meso-4-(2-methoxyethyl)-3,5-dimethylpiperazin-1-yl]benzoyl]-2,4-dihydro-1,3-benzoxazin-8-yl]-5-fluoro-2-(3-oxa-8-azabicyclo[3.2.1]octan-8-yl)benzoic acid] | 3.6 nM |
